≈ marks a conversion by molar mass, not a printed value. Entries after “also recorded” stand apart in the source; their conditions may differ. Read-outs that look alike come from different tables or passages of the source.
Columns and labels:
[1] = CAD (charged aerosol detector) solubility
[2] = tested on: THP-1 cells; test: Mammalian cell growth inhibition (THP-1); type: cell-based; settings: Homo sapiens
Description: We hypothesized that, in view of their structural similarity, 1 and 2 probably shared the same mechanism of action.

[3] = Intrinsic clearance in mouse liver microsomes; type: in vitro ADME
Procedure: page 13: 4. Parasite assays T. cruzi4, Leishmania donovani axenic amastigote, cidal axenic amastigote and intra- macrophage drug sensitivity assays were conducted as previously described5,6. a. […] Instead of a single readout at 72 h, multiple identical plates were used and read at different time points (24, 48, 72 h). Rate of kill curves showing the luminescence signal at each time point for each concentration were plotted. 5. […] The rate of intrinsic clearance (CLint) of each test compound was then calculated using the following calculation: CLint(mL/min/g liver) = k x V x Microsomal protein yield Where V (mL/mg protein) is the incubation volume/mg protein added and microsomal protein yield is taken as 52.5 mg protein/g liver. Verapamil (0.5 μM) was used as a positive control to confirm acceptable assay performance. 6. Pharmacokinetic studies. a. Mouse and dog PK Mouse pharmacokinetic studies were conducted in male CD-1 mice and male beagle dogs. 3 animals per group were used for each study performed. A dose of 3 mg/kg was administered intravenously, in a bolus form to mice and infused over a 30 min period to dogs. For all the intravenous studies compound were dissolved in 5% DMSO/20% kleptose in saline. A dose of 10 mg/kg was orally administered by gavage to the two species in a suspension of 1% methylcellulose to investigate oral pharmacokinetics. S13

[4] = tested on: L. donovani intramacrophage amastigotes; test: L. donovani intramacrophage assay (amastigotes in differentiated THP-1 cells); type: cell-based, Leishmania donovani; settings: Leishmania donovani
Procedure: (§1) T. cruzi4, Leishmania donovani axenic amastigote, cidal axenic amastigote and intra-
(§2) macrophage drug sensitivity assays were conducted as previously described5,6. […]
(§3) 5. Intrinsic clearance (CLint) […]
(§4) 6. Pharmacokinetic studies. […]

[5] = tested on: Trypanosoma cruzi; test: T. cruzi phenotypic screening assay; type: cell-based; settings: phenotypic screen, read-out: EC50 against T. cruzi
Procedure: as §1, §2, §3, §4

[6] = tested on: Salmonella typhimurium TA1535, TA1537, TA98, TA100 and Escherichia coli WP2uvrA(pKM101); test: Bacterial mutation screening assay (Ames test), overall outcome; type: cell-based; settings: presence and absence of S9-mix
Procedure: i. Bacterial Mutation (Ames) Assay
Compound 6 was tested in a bacterial mutation screening assay (Ames test) with Salmonella typhimurium TA1535, TA1537, TA98, TA100 and Escherichia coli WP2uvrA(pKM101) in the presence and absence of an exogenous mammalian oxidative metabolism system (S9-mix). The maximum concentration tested and […]
Compound 6a was tested in a bacterial mutation screening assay (Ames test) with […]
Compound 7a was tested in a bacterial mutation screening assay (Ames test) with […]
The bacterial mutation screening assay was a plate incorporation test carried out as previously described15 and according to current methodology. […]

[7] = Solubility in fasted simulated intestinal fluid (FaSSIF); settings: fassif
[8] = physchem
[9] = tested on: L. donovani proteasome β subunits; test: Activity-based probe (UbiQ-018) labelling of L. donovani proteasome; type: binding, Leishmania donovani; settings: 100 µM
Procedure: m. Activity-Based Probe Labelling of THP1 and L. donovani proteasome
Proteasome enriched fractions from THP1 (20 µg), L. donovani (10 µg) and L. donovani […]
µM for 1 h. Proteasome enriched fractions were also incubated with DMSO as control.
For all proteasome labelling experiments, the active-site probe Me4BodipyFL-Ahx3Leu3VS (UbiQ-018) was used at final concentration of 500 nM in sucrose buffer (50 mM Tris buffer pH 7.5, 5 mM magnesium chloride, 1 mM EDTA, 50 mM NaCl, 250 mM sucrose, 2 mM ATP, 1 mM DTT). Proteasome enriched fractions treated with […]
DMSO or test compounds, were incubated with the probe for 2h at RT. Samples were then denatured by addition of Laemmli sample buffer, heated to 95°C for 10 min and separated by electrophoresis on a 15% SDS-PAGE acrylamide gel. Following separation, gels were scanned in the fluorescein channel of a ChemiDoc reader (λ excitation/emission = 480/530 nm). Fluorescent proteins were excised and MALDI– TOF analysis carried out by the FingerPrints Proteomics service at the University of […]
10. Measuring Proteolytic activity of Leishmania tarentolae Proteasome […]
pre-prepared as a 10 mM stocks in 100 % DMSO and then diluted 1 in 3, over 11 points, prior to dispense of 100 nl of each dilution series into black, low volume, 384-well microplates. Proteasome was prepared as a 0.5 µg/mL working solution in assay buffer (50 mM HEPES (pH 7.5), 150 mM NaCl, 5 mM MgCl2, 5% glycerol, 1 mM CHAPS) and 5 µL was added using a Multidrop Micro (Thermo Fisher Scientific) to all wells containing compound dilutions on the test microplates. The microplates were then centrifuged for 1 min at 1000 rpm and incubated for 15 mins at 25 °C, prior to an assay initiating addition of 5 µl of fluorogenic substrate, which had been prepared as a 1 µM […]
The assay microplates were then centrifuged for 10 secs before using a Tecan M1000 Pro to monitor the increase of fluorescent intensity at 25 °C by excitation of the liberated Rhodamine110 at 485 nm and emission at 535 nm every 125 secs for 20 cycles. […]
calculate initial rates of reactions for all assay wells on the microplate by fitting to a linear regression model. The initial rates of reaction for all compound concentrations tested were normalised to the initial rates determined for 16 replicate control wells per microplate of both uninhibited reaction and no-proteasome background, and subsequently, IC50 values were determined by fitting the normalised data to the following four-parameter logistic model; y = a + (( b – a) / ( 1 + ( 10 ^ x / 10 ^ c ) ^ d ), where ‘a’ is the minimum, ‘b’ is […], ‘c’ is the IC50 and ‘d’ is […].
11. Cryo-EM of 20S Leishmania tarentolae proteasome a. Purification of 20S Leishmania tarentolae proteasome. […]

[10] = tested on: chymotrypsin-like activity of the L. donovani proteasome; test: biochemical; design: species or system Leishmania donovani; settings: lysates from RES II and WT parasites
Procedure: An in vitro assay was developed that enabled the chymotrypsin-like activity and additional proteolytic activities associated with the proteasome to be directly monitored within proteasome-enriched parasite cell lysates. Likewise, human proteasome from two sources (i.e., commercially pure 26S and enriched proteasome fractions from THP-1 lysates) was tested using the same biochemical assays.
Proteasome enrichment by ultracentrifugation
The protocol described by Kisselev et al.34 was adapted to enrich the proteasomes present in L. donovani and THP1 crude extracts. L. donovani or THP1 cells were resuspended in sucrose buffer (50 mM Tris buffer pH 7.5, 5 mM Magnesium chloride, 1 mM EDTA, 50 mM NaCl, 250 mM sucrose, 2 mM ATP, 1 mM DTT) and lysed by nitrogen cavitation for 15 min (110 bars of 1500 psi). Lysates were centrifuged at 20,000g for 30 min at 4 °C and supernatants containing soluble protein were subjected to an ultracentrifugation step at 300,000g for 2h at 4 °C. The resulting proteasome-containing pellets were resuspended in sucrose buffer and left on ice for 30 min to complete solubilization. Samples were centrifuged for 10 min at 20,000 g to remove insoluble material. Proteins contained in supernatant (proteasome enriched fraction) were measured by Bradford.
Proteasome activity assays
Compounds were dispensed into black 384-well assay plates (Greiner) by acoustic dispensing (LabCyte ECHO). For potency determinations, eleven-point, one in three dilution curves were generated, with a top concentration of 100 µM. Three proteasome activities were measured using a commercially available indirect enzyme-based luminescent assay kit (Promega) with Suc-LLVY-aminoluciferin, Z-LRR-aminoluciferin and Z-nLPnLD-aminoluciferin used as substrates for chymotrypsin-like, trypsin-like and caspase-like activities, respectively. In addition to proteasome samples: L. donovani and THP1-enriched proteasomes, commercially available human purified 26S proteasome (Boston Biochem) was also assessed.

[11] = tested on: human proteasome catalytic subunits (THP-1 extracts); test: Activity-based probe (UbiQ-018) labelling of THP-1 proteasome; type: binding; settings: human THP-1 extracts, 100 µM
[12] = tested on: L. donovani promastigotes; test: microbe, parasite or virus in culture; type: cell-based, Leishmania donovani; settings: Leishmania donovani
Procedure: 9. Mode of action studies a. Cell lines and culture conditions […]
c. Generation of drug-resistant parasites […]
donovani in the continuous presence of this compound. Starting at a sub-lethal […]
After a total of 120 days in
Genomic DNA was harvested from three independently generated L. donovani resistant clones and an age match control, as previously described27. PCR was performed using Platinum PCR Supermix (Invitrogen), as per manufacturer’s […]
generated using primers SubunitB4FW and SubunitB4RV, then sequenced using primer SubunitB4FW (Table S6). To sequence the β5 subunit (LdBPK_361730.1), an […]
sequenced using primer SubunitB5FW. PCR amplification and DNA sequencing were performed in triplicate for each independently generated cell line. The Leishmania donovani BPK282A1 sequences of the two subunits were identified in TriTrypDB and […]
e. Generation of overexpression constructs and LdBOB transgenic cell lines The genes encoding the mutated versions of the β4 (LdBPK_360340.1) and the β5 […]
parasites, were synthesised (GeneArt, Thermo Fischer Scientific). The synthetic genes, flanked by BamHI sites were cloned into the equivalent site of pIR1-SAT. The accuracy of all assembled constructs was verified by sequencing.
Mid-log-phase L. donovani promastigotes (LdBOB) were transfected with overexpression constructs using the Human T-Cell Nucleofector kit and the Amaxa Nucleofector electroporator (program V-033). Following transfection, cells were […]
to appropriate drug selection (100 µg/mL nourseothricin). Cloned cell lines were […]
selection for one passage prior to experiments. […]

[13] = tested on: L. donovani (LV9); design: method as in PMID 11353640; settings: similar mouse model, once daily; cited from earlier work
[14] = tested on: L. donovani (LV9); test: Mouse model of VL (in vivo efficacy in female Balb/C mice); design: species or system Leishmania donovani; settings: 30 mg/kg u.i.d. (10 days PO)
Procedure: Infected mice were dosed at 3, 10, or 25 mg/kg orally twice a day for 10 consecutive days. Two days after the termination of treatment, mice were euthanized, and the parasite burdens in their livers were determined.
Peripheral blood samples were obtained at 5, 15, 30 min, 1, 2, 4, 6 ,8 and 24 h after intravenous administration and 15, 30, 45 min,1, 2, 4, 6, 8 and 24 h after oral administration. Blood was 1/2 diluted with milliQ water and immediately frozen on dry ice until analysis. Quantification was performed by means of LC-MS/MS (API4000), with a lower limit of quantification of 1 ng/mL. […]
Data analysis and calculation of pharmacokinetic parameters was performed using Phoenix, WinNonLin Version 6.3. […]
For both intravenous and oral administration, the systemic exposures were determined by calculating the area under the blood concentration time curve (AUC) from the start of dosing to the last observed quantifiable concentration (AUC0-t) by using the linear up-log down trapezoidal rule. The slope of the terminal elimination phase was estimated by linear regression of the terminal data points (minimum 3 points) from a natural log concentration versus time plot of the data. The half-life (t1/2) of the terminal elimination phase was calculated as t1/2 = 0.693/λ.
7. In vivo efficacy in female Balb/C mice
To establish infection in mice, sodium stibogluconate-sensitive L. donovani (LV9, WHO designation: MHOM/ET/67/HU3) amastigotes were isolated from the spleen of a heavily infected donor hamster (Janvier, France)7. An inoculum containing 1.0 x 10^8 amastigotes/mL in Dulbecco’s modified eagles medium (high glucose) was prepared […]
and female BalbC mice (Harlan, UK) then infected intravenously via the tail vein with a 0.2 mL bolus (equivalent to ~2.0 x 10^7 amastigotes). Infection was left to establish for […]
daily orally as a suspension in 0.5% hydroxypropylmethylcellulose, 0.4% tween 80 and 0.5% benzyl alcohol. With twice daily regimens, the second daily dose was administered approximately 8 h following the first dose. Dose regimens evaluated were:
1. 50 mg/kg twice daily for 5 days
2. 25 mg/kg, 10 mg/kg and 3 mg/kg twice daily for 10 days
3. 25 mg/kg once daily for 10 days
Miltefosine, as the only oral treatment for visceral leishmaniasis, was used as a […]

[15] = L. donovani amastigotes in differentiated THP-1 cells, read-out: Intramacrophage EC50

O=C(Nc1cccc(-c2cn3cccnc3n2)c1)c1ccco1 [Compound 2]
solubility [1]: ≥ 162 µg/mL
EC50 [2]: > 50 µM
CLint [3]: 8.5 mL/min/g
EC50 [4, 15]: 26 µM
EC50 [5]: 0.93 µM

O=C(Nc1cccc(-c2nc3ncccc3o2)c1)c1ccco1 [Compound 1]
solubility [1]: 58 µg/mL (≈ 190 µM)
EC50 [2]: > 50 µM
CLint [3]: 24 mL/min/g
EC50 [4, 15]: 5.7 µM
EC50 [5]: 0.22 µM

O=C(Nc1ccc(F)c(-c2cn3nc(N4CCOCC4)cnc3n2)c1)N1CCCC1 [Compound 7a]
AMES [6]: not mutagenic; also recorded: negative
EC50 [2]: > 50 µM
solubility [7]: 13 µg/mL (≈ 31.6 µM)
solubility [8]: 24 µg/mL (≈ 58.3 µM)
CLint [3]: 0.91 mL/min/g
EC50 ([4]; THP-1, read-out: Intramacrophage EC50): 0.41 µM

CC(C)C[C@H](NC(=O)[C@H](Cc1ccccc1)NC(=O)c1cnccn1)B(O)O [bortezomib, reference compound]
UbiQ-018 labelling of proteasome subunits ([9]; L. donovani WT extracts): prevents labeling of proteasome subunits in all extracts
UbiQ-018 labelling of proteasome subunits ([9]; L. donovani-resistant RES II extracts): prevents labeling of proteasome subunits in all extracts
inhibition of chymotrypsin-like activity, RES II vs WT lysates [10]: equal potency
UbiQ-018 labelling of proteasome subunits [11]: prevents labeling of proteasome subunits in all extracts
EC50 ([12]; RES I (compound 7-resistant clone)): 0.028 ± 0.0014 µM
EC50 ([12]; RES III (compound 7-resistant clone)): 0.032 ± 0.0015 µM
EC50 ([12]; WT promastigotes): 0.031 ± 0.0015 µM

CCCCCCCCCCCCCCCCOP(=O)([O-])OCC[N+](C)(C)C [miltefosine, reference compound]
ED90 [13]: 27 mg/kg
Reduction in parasite burden (compared to the vehicle control group) [14]: 99.9%

— article PMC6511062, “Preclinical candidate for the treatment of visceral leishmaniasis that acts through proteasome inhibition” (Proceedings of the National Academy of Sciences of the …, 2019)
